pIC50: −log10 of the molar value.
Biological target: α4β7 integrin (Homo sapiens (Human), UniProt P13612+P26010)
Assay: MAdCAM-1/α4β7 integrin binding inhibitory activity evaluation test in the presence of serum (2)
Assay type: cell-based
Settings: RPMI-8866 cells binding to mouse MAdCAM-1/Fc, same manner as Test (3), read-out: α4β7 Rank of activity with serum added
Experimental: The ability of test substances to inhibit the binding of a human B cell line, RPMI-8866, which is known to express α4β7 integrin, to MAdCAM-1 was measured.
To 96-well microtiter plates, recombinant mouse MAdCAM-1/Fc (R&D systems) solution (1 μg/mL) diluted with buffer A (carbonate buffer, pH 9.6) was added at 50 μL/well, followed by incubation at 4° C. overnight. After washing once with PBS, Block Ace (Snow Brand Milk Products Company, Limited) was added at 150 μL/well, followed by incubation at room temperature for 2 hours. After removal, washing was conducted once with PBS.
100 μL of each test substance diluted with a binding buffer (DMEM containing 40 mM HEPES, 0.2% BSA, and 4 mM MnCl2) to various concentrations and 100 μL of RPMI-8866 cells (2×10^6 cell/mL) were added to plates coated with MAdCAM-1/Fc (5×10^5 cells/well) with human serum being contained at a final concentration of 50%, followed by incubation at 30° C. for 15 minutes to 60 minutes. After the cells were bound to each well, unbound cells were removed by washing with PBS. To the plates, buffer C (PBS containing 1.5% Triton X-100) was added at 50 μL/well to lyse the bound RPMI-8866 cells. To 30 μL of the cell lysate, 30 μL of Substrate Buffer (Promega, CytoTox 96 Non-Radioactive Cytotoxicity Assay) was added, and the reaction was allowed to proceed at room temperature in a dark place for 30 minutes. To each well, 30 μL of Stop Solution (Promega, CytoTox 96 Non-Radioactive Cytotoxicity Assay) was added, and the absorbance at 490 nm was measured by using a plate reader. Here, by the obtained absorbance, the activity of the lactate dehydrogenase (LDH) dissolved into the supernatant of each well was detected. In other words, the absorbance was proportional to the number of the RPMI-8866 cells bound to MAdCAM-1 and remaining on the plate. The test was duplicated. The binding ratios of the cells at various concentrations were determined, with the absorbance of a well containing no test substance taken as 100%. Then, the concentration IC50, at which 50% binding inhibition was achieved, was calculated.
The MAdCAM-1/α4β7 integrin binding inhibitory activity in the presence of serum was measured in the same manner as in Test (3) described above. […] The VCAM-1/α4β1 integrin binding inhibitory activity evaluation test and the MAdCAM-1/α4β7 integrin binding inhibitory activity evaluation test were carried out according to the methods described in Tests (1) and (2) described above.

Sequence of α4β7 integrin (P13612 34-1032): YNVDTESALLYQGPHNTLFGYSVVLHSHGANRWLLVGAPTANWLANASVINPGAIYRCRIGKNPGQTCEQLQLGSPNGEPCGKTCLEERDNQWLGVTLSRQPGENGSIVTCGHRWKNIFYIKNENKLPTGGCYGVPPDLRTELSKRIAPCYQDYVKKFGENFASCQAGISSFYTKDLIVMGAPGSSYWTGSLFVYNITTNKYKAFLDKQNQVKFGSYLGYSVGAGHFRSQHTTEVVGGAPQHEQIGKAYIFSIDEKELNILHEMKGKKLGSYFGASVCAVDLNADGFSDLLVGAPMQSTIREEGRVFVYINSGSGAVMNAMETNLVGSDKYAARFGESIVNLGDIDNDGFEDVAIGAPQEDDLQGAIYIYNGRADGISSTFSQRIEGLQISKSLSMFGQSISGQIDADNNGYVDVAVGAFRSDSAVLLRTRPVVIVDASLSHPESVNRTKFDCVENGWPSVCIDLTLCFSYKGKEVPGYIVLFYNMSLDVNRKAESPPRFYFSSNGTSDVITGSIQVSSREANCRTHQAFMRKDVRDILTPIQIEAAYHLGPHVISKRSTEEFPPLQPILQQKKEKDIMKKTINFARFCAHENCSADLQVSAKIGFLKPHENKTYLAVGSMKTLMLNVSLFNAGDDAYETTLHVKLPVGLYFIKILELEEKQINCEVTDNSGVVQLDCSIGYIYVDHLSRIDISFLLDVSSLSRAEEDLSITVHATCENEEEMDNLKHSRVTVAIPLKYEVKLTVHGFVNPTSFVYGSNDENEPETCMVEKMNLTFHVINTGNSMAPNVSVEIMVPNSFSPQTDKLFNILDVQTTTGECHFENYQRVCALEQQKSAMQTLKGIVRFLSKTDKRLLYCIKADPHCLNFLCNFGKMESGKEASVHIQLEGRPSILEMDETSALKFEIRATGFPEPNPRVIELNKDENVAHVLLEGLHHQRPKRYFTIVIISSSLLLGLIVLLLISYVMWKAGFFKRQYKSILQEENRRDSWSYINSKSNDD
Sequence of α4β7 integrin (P26010 20-798): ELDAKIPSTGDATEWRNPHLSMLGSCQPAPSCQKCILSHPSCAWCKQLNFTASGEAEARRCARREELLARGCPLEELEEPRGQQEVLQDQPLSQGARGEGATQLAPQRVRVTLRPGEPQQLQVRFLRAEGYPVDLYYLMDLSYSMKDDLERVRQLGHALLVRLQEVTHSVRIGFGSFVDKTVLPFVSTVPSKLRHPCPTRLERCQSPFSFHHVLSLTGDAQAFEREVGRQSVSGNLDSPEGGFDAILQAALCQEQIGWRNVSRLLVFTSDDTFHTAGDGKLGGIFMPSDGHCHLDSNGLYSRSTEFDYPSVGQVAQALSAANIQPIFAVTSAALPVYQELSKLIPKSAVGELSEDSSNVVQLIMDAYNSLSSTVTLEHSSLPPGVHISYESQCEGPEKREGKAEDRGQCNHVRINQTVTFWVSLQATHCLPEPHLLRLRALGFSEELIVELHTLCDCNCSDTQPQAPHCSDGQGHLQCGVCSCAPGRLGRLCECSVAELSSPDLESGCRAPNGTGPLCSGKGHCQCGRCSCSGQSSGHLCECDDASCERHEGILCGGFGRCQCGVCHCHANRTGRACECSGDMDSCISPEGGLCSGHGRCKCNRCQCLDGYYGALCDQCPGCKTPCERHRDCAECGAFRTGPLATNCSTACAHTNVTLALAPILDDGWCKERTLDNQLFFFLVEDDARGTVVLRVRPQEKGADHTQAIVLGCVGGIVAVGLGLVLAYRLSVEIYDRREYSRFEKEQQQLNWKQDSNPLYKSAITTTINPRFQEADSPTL

Structure (SMILES) | pIC50
Cn1c(=O)n(-c2ccc(C[C@H](NC(=O)c3ccc(NS(=O)(=O)c4ccc(-c5cncnc5)cn4)cc3F)C(=O)O)cc2)c(=O)c2ccncc21 [Example 163, N-(2-Fluoro-4-{[(5-pyrimidin-5-yl-pyridin-2-yl)sulfonyl]amino}benzoyl)-4-(1-methyl-2,4-dioxo-1,4-dihydropyrido[3,4-d]pyrimidin-3(2H)-yl)-L-phenylalanine] | 7.30 to 8.00
Cn1c(=O)n(-c2ccc(C[C@H](NC(=O)c3cc(F)c(NS(=O)(=O)c4ccc(-c5cnc(N6CCC6)nc5)cc4)cc3F)C(=O)O)nc2)c(=O)c2ccncc21 [Example 232, N-[4-({[4-(2-Azetidin-1-ylpyrimidin-5-yl)phenyl]sulfonyl}amino)-2,5-difluorobenzoyl]-3-[5-(1-methyl-2,4-dioxo-1,4-dihydropyrido[3,4-d]pyrimidin-3(2H)-yl)pyridin-2-yl]-L-alanine] | 6.70 to 7.30
Cn1c(=O)n(-c2ccc(C[C@H](NC(=O)c3cc(F)c(NS(=O)(=O)c4ccc(-n5cnnc5)cc4)cc3F)C(=O)O)nc2)c(=O)c2ccncc21 [Example 219, N-[2,5-Difluoro-4-({[4-(4H-1,2,4-triazol-4-yl)phenyl]sulfonyl}amino)benzoyl]-3-[5-(1-methyl-2,4-dioxo-1,4-dihydropyrido[3,4-d]pyrimidin-3(2H)-yl)pyridin-2-yl]-L-alanine] | 7.30 to 8.00
Cn1ccc(=O)n(-c2ccc(C[C@H](NC(=O)c3c(F)cc(NS(=O)(=O)c4ccc(-c5ncccn5)cn4)cc3F)C(=O)O)nc2)c1=O [Example 159, N-(2,6-Difluoro-4-{[(5-pyrimidin-2-yl-pyridin-2-yl)sulfonyl]amino}benzoyl)-3-[5-(3-methyl-2,6-dioxo-3,6-dihydropyrimidin-1(2H)-yl)pyridin-2-yl]-L-alanine] | 7.30 to 8.00
Cn1c(=O)n(-c2ccc(C[C@H](NC(=O)c3ccc(NS(=O)(=O)c4ccc[nH]4)cc3F)C(=O)O)nc2)c(=O)c2ccncc21 [Example 182, N-{2-Fluoro-4-[(1H-pyrrol-2-yl-sulfonyl)amino]benzoyl}-3-[5-(1-methyl-2,4-dioxo-1,4-dihydropyrido[3,4-d]pyrimidin-3(2H)-yl)pyridin-2-yl]-L-alanine] | 7.30 to 8.00
Cc1cn(C)c(=O)n(-c2ccc(C[C@H](NC(=O)c3ccc(NS(=O)(=O)c4ccc(C(=O)NC(C)(C)C)nc4)cc3F)C(=O)O)cc2)c1=O [Example 175, N-{4-[({6-[(tert-Butylamino)carbonyl]pyridin-3-yl}sulfonyl)amino]-2-fluorobenzoyl}-4-(3,5-dimethyl-2,6-dioxo-3,6-dihydropyrimidin-1(2H)-yl)-L-phenylalanine] | 7.30 to 8.00
Cc1cc(CNC2CCCC2)ccc1S(=O)(=O)Nc1ccc(C(=O)N[C@@H](Cc2ccc(-n3c(=O)c4ccncc4n(C)c3=O)cc2)C(=O)O)c(F)c1 [Example 181, N-{4-[({4-[(Cyclopentylamino)methyl]-2-methylphenyl}sulfonyl)amino]-2-fluorobenzoyl}-4-(1-methyl-2,4-dioxo-1,4-dihydropyrido[3,4-d]pyrimidin-3(2H)-yl)-L-phenylalanine] | 7.30 to 8.00
Cn1ccc(=O)n(-c2ccc(C[C@H](NC(=O)c3c(F)cc(NS(=O)(=O)c4ccc(C(=O)NC(C)(C)C)cc4)cc3F)C(=O)O)cc2)c1=O [Example 167, N-{4-[({4-[(tert-Butylamino)carbonyl]phenyl}sulfonyl)amino]-2,6-difluorobenzoyl}-4-(3-methyl-2,6-dioxo-3,6-dihydropyrimidin-1(2H)-yl)-L-phenylalanine] | ≥ 8.00
Cc1ccc(-c2ccc(S(=O)(=O)Nc3cc(F)c(C(=O)N[C@@H](Cc4ccc(-n5c(=O)c6ccncc6n(C)c5=O)cc4)C(=O)O)c(F)c3)nc2)cn1 [Example 151, N-(2,6-Difluoro-4-{[(6′-methyl-3,3′-bipyridin-6-yl)sulfonyl]amino}benzoyl)-4-(1-methyl-2,4-dioxo-1,4-dihydropyrido[3,4-d]pyrimidin-3(2H)-yl)-L-phenylalanine] | 7.30 to 8.00
Cn1cnc2c1c(=O)n(-c1ccc(C[C@H](NC(=O)c3c(F)cc(NS(=O)(=O)c4ccc(-c5ncccn5)cn4)cc3F)C(=O)O)cc1)c(=O)n2C [Example 153, N-(2,6-Difluoro-4-{[(5-pyrimidin-2-yl-pyridin-2-yl)sulfonyl]amino}benzoyl)-4-(3,7-dimethyl-2,6-dioxo-2,3,6,7-tetrahydro-1H-purin-1-yl)-L-phenylalanine] | ≥ 8.00
Cn1ccc(=O)n(-c2ccc(C[C@H](NC(=O)c3cc(F)c(NS(=O)(=O)c4ccc(-c5cncnc5)cc4)cc3F)C(=O)O)cc2)c1=O [Example 216, N-(2,5-Difluoro-4-{[(4-pyrimidin-5-ylphenyl)sulfonyl]amino}benzoyl)-4-(3-methyl-2,6-dioxo-3,6-dihydropyrimidin-1(2H)-yl)-L-phenylalanine] | 7.30 to 8.00
CCc1ncc(-c2ccc(S(=O)(=O)Nc3cc(F)c(C(=O)N[C@@H](Cc4ccc(-n5c(=O)c6ccncc6n(C)c5=O)cn4)C(=O)O)cc3F)cc2)cn1 [Example 229, N-[4-({[4-(2-Ethylpyrimidin-5-yl)phenyl]sulfonyl}amino)-2,5-difluorobenzoyl]-3-[5-(1-methyl-2,4-dioxo-1,4-dihydropyrido[3,4-d]pyrimidin-3(2H)-yl)pyridin-2-yl]-L-alanine] | 6.70 to 7.30
Cn1c(=O)n(-c2ccc(C[C@H](NC(=O)c3cc(F)c(NS(=O)(=O)c4ccc5c(c4)C(=O)OC5)cc3F)C(=O)O)nc2)c(=O)c2ccncc21 [Example 233, N-(2,5-Difluoro-4-{[(3-oxo-1,3-dihydro-2-benzofuran-5-yl)sulfonyl]amino}benzoyl)-3-[5-(1-methyl-2,4-dioxo-1,4-dihydropyrido[3,4-d]pyrimidin-3(2H)-yl)pyridin-2-yl]-L-alanine] | 6.70 to 7.30
Cn1ccc(=O)n(-c2ccc(C[C@H](NC(=O)c3c(F)cc(NS(=O)(=O)c4ccncc4)cc3F)C(=O)O)cc2)c1=O [Example 171, N-{2,6-Difluoro-4-[(pyridin-4-yl-sulfonyl)amino]benzoyl}-4-(3-methyl-2,6-dioxo-3,6-dihydropyrimidin-1 (2H)-yl)-L-phenylalanine] | 7.30 to 8.00
CNCc1ccc(S(=O)(=O)Nc2ccc(C(=O)N[C@@H](Cc3ccc(-n4c(=O)c5ccncc5n(C)c4=O)cn3)C(=O)O)c(F)c2)cc1 [Example 177, N-{2-Fluoro-4-[({4-[(methylamino)methyl]phenyl}sulfonyl)amino]benzoyl}-3-[5-(1-methyl-2,4-dioxo-1,4-dihydropyrido[3,4-d]pyrimidin-3(2H)-yl)pyridin-2-yl]-L-alanine] | 7.30 to 8.00
CNCc1ccc(S(=O)(=O)Nc2cc(F)c(C(=O)N[C@@H](Cc3ccc(-n4c(=O)ccn(C)c4=O)cc3)C(=O)O)c(F)c2)cc1 [Example 176, N-{2,6-Difluoro-4-[({4-[(methylamino)methyl]phenyl}sulfonyl)amino]benzoyl}-4-(3-methyl-2,6-dioxo-3,6-dihydropyrimidin-1(2H)-yl)-L-phenylalanine] | ≥ 8.00
Cn1c(=O)n(-c2ccc(C[C@H](NC(=O)c3c(F)cc(NS(=O)(=O)c4ccc(C(=O)NC5CCCC5)cc4)cc3F)C(=O)O)cc2)c(=O)c2ccncc21 [Example 166, N-{4-[({4-[(Cyclopentylamino)carbonyl]phenyl}sulfonyl)amino]-2,6-difluorobenzoyl}-4-(1-methyl-2,4-dioxo-1,4-dihydropyrido[3,4-d]pyrimidin-3(2H)-yl)-L-phenylalanine] | 7.30 to 8.00

— US9533985B2, “Sulfonamide derivative and medicinal use thereof” (EA Pharma Co., Ltd., priority 2012, dated 2017)
